Test results from the supplement of paper PMC6580486.

Columns and labels:
[1] = test system: PCB490-3 (human epithelioid sarcoma primary culture)
Method: (§1)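 Roche open-access kinase inhibitor screen (223 compounds) on human epithelioid sarcoma primary cultures from three spatially distinct regions of tumor PCB490. 384-well plates, 72 h, CellTiter-Glo viability; IC50 by Hill curve fit. 100000 nM = no IC50 reached. Compound ids carry a plate-well prefix, which is stripped.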

[2] = test system: PCB490-4 (human epithelioid sarcoma primary culture)
Method: as §1

[3] = test system: PCB490-5 (human epithelioid sarcoma primary culture)
Method: as §1

Compound | IC50 cell viability [1] [µM] | IC50 cell viability [2] [µM] | IC50 cell viability [3] [µM]
O=C1NC(=NCCc2ccc(F)cc2)S/C1=C\c1ccc2ncccc2c1 | > 100 | > 100 | > 100
Cc1[nH]nc2c1N=C(c1ccccc1F)c1cc(C(N)=O)ccc1N2 | > 100 | 2.66 | 4.23
Cn1cc(C2=C(c3cn(CCCN=C(N)N)c4ccccc34)C(=O)NC2=O)c2ccccc21 | > 100 | > 100 | > 100
Nc1c(C(=O)c2cccc(-c3ccc[n+]([O-])c3)c2)cnn1-c1ccc(F)cc1F | > 100 | > 100 | > 100
Nc1c(C(=O)c2cccc(-c3ccncc3)c2)cnn1-c1ccc(F)cc1 | > 100 | > 100 | > 100
Cn1c(=O)c(Oc2ccc(F)cc2F)cc2cnc(NC3CCS(=O)(=O)CC3)nc21 | > 100 | > 100 | > 100
O=C1NC(=NCCc2ccc(Br)cc2)S/C1=C\c1ccc2ncccc2c1 | > 100 | > 100 | > 100
Cn1cc(C2=C(c3c4n(c5ccccc35)CCNC4)C(=O)NC2=O)c2ccccc21 | > 100 | > 100 | > 100
C[C@@H](Cn1ncnn1)Nc1ncc2cc(Oc3ccc(F)cc3F)c(=O)n(C)c2n1 | > 100 | > 100 | > 100
C[C@H](O)CNc1cc(-c2[nH]c3cccnc3c2-c2ccc(F)cc2)ccn1 | > 100 | > 100 | > 100
O=C1NC(=NCCc2ccccc2F)S/C1=C\c1ccc2ncccc2c1 | > 100 | > 100 | > 100
CCNC(=O)[C@@H]1CCCN2C(=O)CC[C@H](NC(=O)[C@H](Cc3ccc(OP(=O)(O)O)cc3)NC(C)=O)C(=O)N12 | > 100 | > 100 | > 100
O=[N+]([O-])c1ccc2c(c1)C(c1ccccc1Cl)=Nc1cn[nH]c1N2 | > 100 | > 100 | > 100
Cn1cc(C2=C(c3cccc(OC[C@H](O)CO)c3)C(=O)NC2=O)c2ccccc21 | > 100 | > 100 | > 100
Cn1cc(C2=C(c3cccnc3)C(=O)NC2=O)c2ccccc21 | > 100 | > 100 | > 100
CNCC#Cc1c(F)ccc2c1/C(=C/c1[nH]ccc1OC)C(=O)N2 | 26.8 | 20.7 | 19.5
COc1ccc(O)c(C(=O)c2ccc(C(=O)N[C@@H]3CCCNC[C@H]3NC(=O)c3ccncc3)cc2)c1F | > 100 | > 100 | > 100
CN[C@H](C#Cc1c(F)ccc2c1/C(=C/c1[nH]ccc1OC)C(=O)N2)CO | > 100 | > 100 | 1.77
CS(=O)(=O)CCCn1c(=O)c(Oc2ccc(F)cc2F)cc2cnc(NC3CCOCC3)nc21 | > 100 | > 100 | > 100
Cc1ccccc1C1=C(c2cn(C)c3ccccc23)C(=O)NC1=O | > 100 | > 100 | > 100

Compound | IC50 cell viability [1] [µM] | IC50 cell viability [2] [µM] | IC50 cell viability [3] [µM]
Cn1cc(C2=C(c3cn(CCO)c4ccccc34)C(=O)NC2=O)c2ccccc21 | > 100 | > 100 | > 100
Cn1cc(C2=C(c3cccc4ccccc34)C(=O)NC2=O)c2ccccc21 | > 100 | > 100 | > 100
CS(=O)(=O)CCn1c(=O)c(Oc2ccc(F)cc2F)cc2cnc(NC3CCOCC3)nc21 | > 100 | > 100 | > 100
O=C1NC(=NCCCc2ccccc2)S/C1=C\c1ccc2ncccc2c1 | > 100 | > 100 | > 100
O=C1NC(=NCCc2cccs2)S/C1=C\c1ccc2ncccc2c1 | > 100 | > 100 | > 100
NC1=NC(=O)/C(=C/c2ccc3ncccc3c2)S1 | > 100 | > 100 | > 100
Nc1c(C(=O)c2cccc(CCCN3CCOCC3)c2)cnn1-c1ccc(F)cc1 | > 100 | > 100 | > 100
CC(C)c1[nH]nc2c1N=C(c1ccccc1Cl)c1cc([N+](=O)[O-])ccc1N2 | > 100 | > 100 | > 100
Cn1cc(C2=C(c3ccc(OCC(O)CO)cc3)C(=O)NC2=O)c2ccccc21 (stereo not given) | > 100 | > 100 | > 100
O=C1NC(=NCCc2cccc(F)c2)S/C1=C\c1ccc2ncccc2c1 | > 100 | > 100 | > 100
Nc1[nH]nc2nc(-c3cccs3)cc(C(F)(F)F)c12 | > 100 | > 100 | > 100
N#Cc1ccc(C(=O)c2cnn(-c3ccc(F)cc3)c2N)cc1 | > 100 | > 100 | > 100
CCn1c(=O)c(Oc2ccc(F)cc2F)cc2cnc(NC3CCOCC3)nc21 | > 100 | > 100 | > 100
CN1C[C@@H]2Cn3c(c(C4=C(c5cn(C)c6ccccc56)C(=O)NC4=O)c4ccccc43)C[C@H]2C1 | > 100 | > 100 | > 100
Cn1cc(C2=C(c3c([S+](C)[O-])n(C)c4ccccc34)C(=O)NC2=O)c2ccccc21 (stereo not given) | > 100 | > 100 | > 100
O=c1[nH]c2nc(NC3CCOCC3)ncc2cc1Oc1ccc(F)cc1F | > 100 | > 100 | > 100
COc1cccc2c1c(C1=C(c3cn(C)c4ccccc34)C(=O)NC1=O)cn2C | > 100 | > 100 | > 100
Cn1c(=O)c(Oc2cccc(F)c2)cc2cnc(NC3CCOCC3)nc21 | > 100 | > 100 | > 100
Cc1ccc2c(c1)c(C1=C(c3cn(C)c4ccccc34)C(=O)NC1=O)cn2C | > 100 | > 100 | > 100
COc1ccccc1CCN=C1NC(=O)/C(=C/c2ccc3ncccc3c2)S1 | > 100 | > 100 | > 100

Compound | IC50 cell viability [1] [µM] | IC50 cell viability [2] [µM] | IC50 cell viability [3] [µM]
COc1ccccc1C(=O)c1cnc(NC2CCN(S(C)(=O)=O)CC2)nc1N | > 100 | > 100 | > 100
Cn1cc(C2=C(c3cccc(Br)c3)C(=O)NC2=O)c2ccccc21 | > 100 | > 100 | > 100
COc1cccc(C2=C(c3cn(C)c4c(C)cccc34)C(=O)NC2=O)c1 | > 100 | > 100 | > 100
CN1CCN(CC#Cc2cccc(C(=O)c3cnn(-c4ccc(F)cc4)c3N)c2)CC1 | > 100 | > 100 | > 100
Cn1cc(C2=C(c3cn(C)c4ncccc34)C(=O)NC2=O)c2ccccc21 | > 100 | > 100 | > 100
O=c1c(Oc2ccc(F)cc2F)cc2cnc(NC3CCOCC3)nc2n1CCCO | > 100 | > 100 | > 100
Nc1c(C(=O)c2cccc(-c3ccncc3)c2)cnn1-c1ccc(F)cc1F | > 100 | > 100 | > 100
Cc1ccccc1-n1ncc(C(=O)c2ccccc2)c1N | > 100 | > 100 | > 100
O=C1NC(=NCCc2cccc(Cl)c2)S/C1=C\c1ccc2ncccc2c1 | > 100 | > 100 | > 100
Cn1c(=O)c(-c2ccccc2Cl)cc2cnc(NC3CCOCC3)nc21 | > 100 | > 100 | > 100
Cc1ccc(C)c(C2=C(c3cn(C)c4ccccc34)C(=O)NC2=O)c1 | > 100 | > 100 | > 100
COc1cccc(F)c1C(=O)c1cnc(NC2CCN(S(C)(=O)=O)CC2)nc1N | > 100 | > 100 | > 100
Nc1c(C(=O)c2cccc(C#CCN3CCOCC3)c2)cnn1-c1ccc(F)cc1 | > 100 | > 100 | > 100
CCCCCNC(=O)[C@@H]1CCCN2C(=O)CC[C@H](NC(=O)[C@H](Cc3ccc(OP(=O)(O)O)cc3)NC(C)=O)C(=O)N12 | > 100 | > 100 | > 100
O=C1NC(O)C(c2c[nH]c3ccccc23)=C1c1c[nH]c2ccccc12 (stereo not given) | > 100 | > 100 | > 100
O=C1NC(=NCCc2ccccn2)S/C1=C\c1ccc2ncccc2c1 | > 100 | > 100 | > 100
COc1cc[nH]c1/C=C1\C(=O)Nc2ccc(F)c(C#CC3(O)CCNCC3)c21 | > 100 | 1 | 0.67
Cn1c(=O)c(Oc2ccc(F)cc2F)cc2cnc(NC3CCOCC3)nc21 | > 100 | > 100 | > 100
Cn1cc(C2=C(c3cn(CCCCCN)c4ccccc34)C(=O)NC2=O)c2ccccc21 | > 100 | > 100 | > 100
O=C1NC(=NCc2ccccn2)S/C1=C\c1ccc2ncccc2c1 | > 100 | > 100 | > 100
